Assay results published in PubChem BioAssay (NCI).
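Following 48 hours of exposure in 96-well plates, responses at five concentrations were used to interpolate endpoints linearly. Definition used: TGI = concentration required for complete inhibition of growth.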

Key:
Experiment in all cases: NCI tumour cell line growth inhibition, 48 h
[1] = tested on: UO-31 renal
[2] = tested on: SNB-19 CNS
[3] = tested on: MDA-MB-435
[4] = tested on: LOX IMVI melanoma
[5] = tested on: HCT-15 colon
[6] = tested on: SK-OV-3 ovarian
[7] = tested on: SF-295 CNS
[8] = tested on: U251 CNS
[9] = tested on: 786-0 renal
[10] = tested on: DU-145 prostate
[11] = tested on: RXF 393 renal
[12] = tested on: MOLT-4 leukemia
[13] = tested on: NCI-H23 lung
[14] = tested on: SW-620 colon
[15] = tested on: SK-MEL-28 melanoma
[16] = tested on: OVCAR-8 ovarian
[17] = tested on: MDA-N
[18] = tested on: NCI-H226 lung
[19] = tested on: NCI-H460 lung
[20] = tested on: IGROV1 ovarian

Nc1ncnc2c1N=C(c1ccccc1)CC(c1ccccc1)N2 (stereo unspecified)
TGI [1]: > 100 µM
TGI [2]: > 100 µM
TGI [3]: > 100 µM
TGI [4]: > 100 µM
TGI [5]: > 100 µM
TGI [6]: > 100 µM
TGI [7]: > 100 µM
TGI [8]: > 100 µM
TGI [9]: > 100 µM
TGI [10]: > 100 µM
TGI [11]: > 100 µM
TGI [12]: > 100 µM
TGI [13]: > 100 µM
TGI [14]: > 100 µM
TGI [15]: > 100 µM
TGI [16]: > 100 µM
TGI [17]: > 100 µM
TGI [18]: > 100 µM

O=C1Nc2ccccc2C1S(=O)(=O)c1ccccc1 (stereo unspecified)
TGI [1]: > 100 µM
TGI [2]: > 100 µM
TGI [3]: > 100 µM
TGI [4]: > 100 µM
TGI [19]: > 100 µM
TGI [5]: > 100 µM
TGI [6]: > 100 µM
TGI [7]: > 100 µM
TGI [8]: > 100 µM
TGI [9]: > 100 µM
TGI [10]: > 100 µM
TGI [11]: > 100 µM
TGI [12]: > 100 µM
TGI [13]: > 100 µM
TGI [20]: > 100 µM
TGI [14]: > 100 µM
TGI [15]: > 100 µM
TGI [16]: > 100 µM
TGI [17]: > 100 µM
TGI [18]: > 100 µM

Cc1ccc(C=C(C(=O)O)C(=O)O)o1
TGI [1]: > 100 µM
TGI [2]: > 100 µM
TGI [3]: > 100 µM
TGI [4]: > 100 µM
TGI [19]: > 100 µM
TGI [5]: > 100 µM
TGI [6]: > 100 µM
TGI [7]: > 100 µM
TGI [8]: > 100 µM
TGI [9]: > 100 µM
TGI [10]: > 100 µM
TGI [11]: > 100 µM
TGI [12]: > 100 µM
TGI [13]: > 100 µM
TGI [20]: > 100 µM
TGI [14]: > 100 µM
TGI [15]: > 100 µM
TGI [16]: > 100 µM
TGI [17]: > 100 µM
TGI [18]: > 100 µM

Cc1cc(/N=C/c2ccc(Cl)cc2)n(-c2ccccc2)n1
TGI [1]: > 100 µM
TGI [2]: > 100 µM
TGI [3]: > 100 µM
TGI [4]: > 100 µM
TGI [19]: > 100 µM
TGI [5]: > 100 µM
TGI [6]: > 100 µM
TGI [7]: > 100 µM
TGI [8]: > 100 µM
TGI [9]: > 100 µM
TGI [10]: > 100 µM
TGI [11]: 77.1 µM
TGI [12]: > 100 µM
TGI [13]: > 100 µM
TGI [20]: > 100 µM
TGI [14]: > 100 µM
TGI [15]: > 100 µM
TGI [16]: > 100 µM
TGI [17]: > 100 µM
TGI [18]: > 100 µM

COc1cccc(-c2[nH]c3cc4c(cc3c(=O)c2C(=O)O)OCO4)c1
TGI [1]: > 100 µM
TGI [2]: > 100 µM
TGI [3]: > 100 µM
TGI [4]: > 100 µM
TGI [19]: > 100 µM
TGI [5]: > 100 µM
TGI [7]: 79.4 µM
TGI [8]: > 100 µM
TGI [9]: > 100 µM
TGI [10]: > 100 µM
TGI [11]: > 100 µM
TGI [12]: > 100 µM
TGI [13]: > 100 µM
TGI [20]: > 100 µM
TGI [14]: > 100 µM
TGI [15]: > 100 µM
TGI [16]: 65.9 µM
TGI [17]: 51.5 µM
TGI [18]: > 100 µM

CCCCC1Cc2cc(OC)ccc2-c2n1c1cc(OC)ccc1[n+]2C (stereo unspecified) (tested in a mixture with another compound)
TGI [1]: 30.9 µM
TGI [3]: 3.79 µM
TGI [4]: 14.3 µM
TGI [19]: 18.1 µM
TGI [5]: > 56.7 µM
TGI [6]: 54.1 µM
TGI [7]: > 37.3 µM
TGI [8]: > 26.5 µM
TGI [9]: > 100 µM
TGI [10]: > 64.1 µM
TGI [11]: 45.8 µM
TGI [12]: > 51.6 µM
TGI [13]: > 39.9 µM
TGI [20]: 6.61 µM
TGI [14]: > 55.5 µM
TGI [15]: 25.8 µM
TGI [16]: 49 µM
TGI [17]: 11.1 µM
TGI [18]: 24.2 µM

CCOc1cc2c(cc1O)CC[C@@H]1[C@@H]2CC[C@]2(C)[C@@H](O)CC[C@@H]12
TGI [1]: 63.1 µM
TGI [2]: 7.13 µM
TGI [3]: 0.0761 µM
TGI [4]: 21 µM
TGI [19]: 23 µM
TGI [5]: 27.2 µM
TGI [6]: 77.3 µM
TGI [7]: 5.87 µM
TGI [8]: 19.3 µM
TGI [9]: 47.1 µM
TGI [10]: 9.15 µM
TGI [11]: 0.816 µM
TGI [12]: 11.6 µM
TGI [13]: 24.9 µM
TGI [20]: 56.1 µM
TGI [14]: > 100 µM
TGI [15]: 77.5 µM
TGI [16]: 33.5 µM
TGI [17]: < 0.0198 µM
TGI [18]: 3.95 µM

CCOC(=O)C(C)(Cc1ccc(O)cn1)NC(=O)c1ccccc1 (stereo unspecified)
TGI [1]: > 100 µM
TGI [2]: > 100 µM
TGI [3]: > 100 µM
TGI [4]: > 100 µM
TGI [19]: > 100 µM
TGI [5]: > 100 µM
TGI [6]: > 100 µM
TGI [7]: > 100 µM
TGI [8]: > 100 µM
TGI [9]: > 100 µM
TGI [10]: > 100 µM
TGI [11]: > 100 µM
TGI [12]: > 100 µM
TGI [13]: > 100 µM
TGI [20]: > 100 µM
TGI [14]: > 100 µM
TGI [15]: > 100 µM
TGI [16]: > 100 µM
TGI [17]: > 100 µM
TGI [18]: > 100 µM

COCCOCCOCCC(=O)NC1CC2CCC1(C)C2(C)C (stereo unspecified)
TGI [1]: > 100 µM
TGI [2]: > 100 µM
TGI [3]: > 100 µM
TGI [4]: > 100 µM
TGI [19]: > 100 µM
TGI [5]: > 100 µM
TGI [6]: > 100 µM
TGI [7]: > 100 µM
TGI [8]: > 100 µM
TGI [9]: > 100 µM
TGI [10]: > 100 µM
TGI [11]: > 100 µM
TGI [12]: > 100 µM
TGI [13]: > 100 µM
TGI [20]: > 100 µM
TGI [14]: > 100 µM
TGI [15]: > 100 µM
TGI [16]: > 100 µM
TGI [17]: > 100 µM
TGI [18]: > 100 µM

CC(=O)O[C@H]1C[C@@H](OC(C)=O)[C@@](C)(O)[C@@H]2[C@@H](OC(C)=O)[C@@]3(O)[C@H](/C=C(/CCl)[C@H]4O[C@H]4[C@@H](OC(C)=O)[C@@]12C)OC(=O)[C@@H]3C
TGI [1]: > 25 µM
TGI [2]: > 25 µM
TGI [3]: > 25 µM
TGI [4]: > 25 µM
TGI [19]: > 25 µM
TGI [5]: > 25 µM
TGI [6]: > 25 µM
TGI [7]: > 25 µM
TGI [8]: > 25 µM
TGI [9]: > 25 µM
TGI [10]: > 25 µM
TGI [11]: > 25 µM
TGI [12]: > 25 µM
TGI [13]: > 25 µM
TGI [20]: > 25 µM
TGI [14]: > 25 µM
TGI [15]: > 25 µM
TGI [16]: > 25 µM
TGI [17]: > 25 µM
TGI [18]: > 25 µM

CC(=O)O[C@H]1C[C@H]2[C@@H]([C@H](OC(C)=O)C[C@@H]3CC4(CC[C@@]32C)OOC2(CCCCC2)OO4)[C@@H]2CC[C@H]([C@H](C)CCC(=O)O)[C@@]12C
TGI [1]: 11 µM
TGI [2]: 25.4 µM
TGI [3]: 18.9 µM
TGI [4]: 15.8 µM
TGI [19]: 21.6 µM
TGI [5]: 17 µM
TGI [6]: 26.9 µM
TGI [7]: 19.1 µM
TGI [8]: 17.7 µM
TGI [9]: 24 µM
TGI [10]: 31.6 µM
TGI [11]: 31.3 µM
TGI [12]: 51.6 µM
TGI [13]: 16.6 µM
TGI [20]: 3.9 µM
TGI [14]: 30 µM
TGI [15]: 24 µM
TGI [16]: 16.1 µM
TGI [17]: 26.9 µM
TGI [18]: 31.6 µM
